Measured values taken from US6242429A, “Arabinosyladenine derivatives” (priority 1998, dated 2001).
“Also recorded” adds a separate entry of the source.

How the values were obtained:
adenosinedeaminase (ADA) [1] = settings: background statement; cited from earlier work
adenosinedeaminase (ADA) [2] = assay: Stability to ADA, enzymatic reaction followed by decrease in UV absorption at 265 nm; format: in vitro ADME; settings: 0.1 mM compound, 75 mM phosphate buffer pH 7.5, 25° C., UV 265 nm
Experimental: An enzymatic reaction was carried out to test stability of the compounds to ADA. Thus, 200 μL (final concentration: 0.1 mM) of a 1 mM solution of a compound of the present invention, a control compound or Ara-A (control), 1.5 mL of a 0.1 M phosphate buffer (pH 7.5; final concentration: 75 mM) and 300 μL of a 200 units/mL enzyme solution (final concentration: […]) were placed in a UV cell and the decrease in ultraviolet absorption at 265 nm with a lapse of time was measured by an ultraviolet absorption meter. The enzymatic reaction was carried out at 25° C. As the enzymatic reaction proceeded, an ultraviolet absorption at 265 nm decreased and said rate of decrease in ultraviolet absorption was expressed as a relative enzymatic reaction rate.

[3] = system: shingles herpes virus (VZV, Kawaguchi strain); assay: Antiviral activity to shingles herpes virus, plaque numbers on HEL cells; format: cell-based, varicella-zoster virus; settings: incubated one week, FIG. 1 and FIG. 2
Experimental: As a test for efficacy of antiviral activity, antiviral activity to shingles herpes virus was measured. Cell-free aricella-zoster virus (VZV) (Kawaguchi strain) was diluted and the resulting solution was layered on HEL cells of a 100% confluent. The layered product was placed in a CO2 incubator of 37° C., shaken every 15 minutes and infected for one hour. The virus solution was removed by suction, then DMEM containing 5% of FCS and a compound of the present invention, a control compound or Ara-A (positive control) was added thereto and the mixture was incubated for one week. The incubated mixture was fixed by formalin, dyed with Crystal Violet and numbers of plaques were measured. The inhibiting rate to shingles virus was determined from the plaque numbers of the control.

| Structure (SMILES) | metabolism by ADA in the blood stream (adenosinedeaminase (ADA) [1]) | resistance (stability) to metabolism by ADA, relative enzymatic reaction rate (adenosinedeaminase (ADA) [2]) | antiviral activity to shingles virus (inhibiting rate from plaque numbers) [3] |
| --- | --- | --- | --- |
| Nc1ncnc2c1ncn2[C@@H]1O[C@H](CO)[C@@H](O)[C@@H]1O [Ara-A, Arabinosyladenine] | quickly metabolized by adenosinedeaminase (ADA) in the blood stream to hypoxanthine arabinoside |  |  |
| Cc1nc(N)c2ncn([C@@H]3O[C@H](CO)[C@@H](O)[C@@H]3O)c2n1 [control compound A, 9-(β-D-arabinofuranosyl)-2-methyladenine] |  | not satisfactory in terms of resistance to ADA; also recorded: did not show a favorable resistance to ADA | no strong antiviral action is obtained; also recorded: a sufficient antiviral action is not achieved |
| CCc1nc(N)c2ncn([C@@H]3O[C@H](CO)[C@@H](O)[C@@H]3O)c2n1 [control compound B, 9-(β-D-arabinofuranosyl)-2-ethyladenine] |  | not satisfactory in terms of resistance to ADA; also recorded: did not show a favorable resistance to ADA | no strong antiviral action is obtained; also recorded: a sufficient antiviral action is not achieved |
